Assay results as given in US20220347158A1, “Methods of Treating Conditions Related to the S1P1 Receptor” (Arena Pharmaceuticals, Inc., priority 2019, published 2022).
Read-outs that look alike come from different tables or passages of the source.

Key:
subjects with CD = conditions: Phase 2; cited from earlier work
UC patients [1] = test: Open-label extension study after the Phase 2 UC study; format: in vivo, human; conditions: up to 46 weeks
Description: (§1) Compound 1, or a pharmaceutically acceptable salt, solvate, or hydrate thereof, is an orally administered, selective, synthetic sphingosine 1-phosphate (S1P) receptor 1, 4, 5 modulator. […] Its safety and tolerability have been evaluated in Phase 1 studies with healthy adult subjects at single doses up to 5 mg and repeated doses up to 4 mg once daily (“QD” or “qd”).

UC patients [2] = test: Phase 2 dose-ranging study in UC patients; format: in vivo, human
Description: Further, while UC and CD have overlapping features, there are differences in pathophysiology, disease location, and extent of disease that may dictate different doses for the treatment of UC and CD. Described herein is the elucidation of safe and efficacious dosing of Compound 1 for the treatment of CD.
as §1

[3] = tested on: peripheral lymphocyte counts; test: Phase 1 studies taken together (safety, tolerability, lymphocyte counts); format: in vivo, human
Description: Compound 1, or a pharmaceutically acceptable salt, solvate, or hydrate thereof, is an orally administered, selective, synthetic sphingosine 1-phosphate (S1P) receptor 1, 4, 5 modulator. […] Its safety and tolerability have been evaluated in Phase 1 studies with healthy adult subjects at single doses up to 5 mg and repeated doses up to 4 mg once daily (“QD” or “qd”). […] In another Phase 1 study, 30 adult subjects received 2 mg of Compound 1 qd (Days 1 to 7), then 3 mg of Compound 1 qd (Days 8 to 12), and finally 4 mg of Compound 1 qd (Days 13 to 14). […] After treatment with Compound 1, lymphocyte reductions of 46% and 65% for Day 8 and Day 15, respectively, were observed.

[4] = tested on: peripheral lymphocyte counts; test: Phase 1, multiple ascending dose clinical trial in healthy subjects; format: in vivo, human
Description: […] […] After treatment with Compound 1, lymphocyte reductions of 46% and 65% for Day 8 and Day 15, respectively, were observed.

lymphocyte = format: in vivo, human
Description: In another Phase 1 study, 30 adult subjects received 2 mg of Compound 1 qd (Days 1 to 7), then 3 mg of Compound 1 qd (Days 8 to 12), and finally 4 mg of Compound 1 qd (Days 13 to 14). […] After treatment with Compound 1, lymphocyte reductions of 46% and 65% for Day 8 and Day 15, respectively, were observed.

[5] = tested on: peripheral blood lymphocytes; test: Phase 1, single ascending dose clinical trial in healthy subjects; format: in vivo, human

Row | Structure (SMILES) | efficacy over placebo (subjects with CD) | beneficial effects in open-label extension (UC patients [1]) | endoscopic and symptomatic improvements versus placebo (UC patients [2]; UC patients, 2 mg QD for 12 weeks) | efficacy over placebo (UC patients [2]; subjects with UC, 2 mg) | reductions in peripheral lymphocyte counts ([3]; Phase 1 studies together, 2 mg and 3 mg) | tolerability and safety ([3]; Phase 1 studies together, doses up to 4 mg) | safety and tolerability ([3]; adult subjects treated at various doses, Phase 1 single doses up to 5 mg, repeated doses up to 4 mg once daily) | safety and tolerability ([4]; up to 21 days of dosing with 2 mg or 3 mg) | peripheral lymphocyte counts ([4]; up to 21 days of dosing, 2 mg and 3 mg) | lymphocyte reductions (lymphocyte; Day 8 (after 2 mg qd Days 1 to 7)) | lymphocyte reductions (lymphocyte; Day 15 (after 2 mg Days 1 to 7, 3 mg Days 8 to 12, 4 mg Days 13 to 14)) | decline in the absolute number of peripheral blood lymphocytes ([5]; single 3 mg and 5 mg doses) | declines in peripheral blood lymphocytes ([5]; single doses up to 1 mg)
1 | CCCCCCCOc1ccc(CCC(N)(CO)CO)cc1C(F)(F)F [amiselimod] | did not result in improved efficacy over placebo |  |  |  |  |  |  |  |  |  |  |  | 
2 | O=C(O)C[C@H]1CCc2c1[nH]c1ccc(OCc3ccc(C4CCCC4)c(C(F)(F)F)c3)cc21 [Compound 1, (R)-2-(7-(4-cyclopentyl-3-(trifluoromethyl)benzyloxy) -1,2,3,4-tetrahydrocyclopenta[b]indol-3-yl)acetic acid] |  | Sustained beneficial effects | clinically meaningful and statistically significant endoscopic and symptomatic improvements | improved efficacy | significant reductions | well-tolerated with no significant safety findings | safe and well-tolerated | safe and well-tolerated | reduced peripheral lymphocyte counts | 46% | 65% | clear dose-responsive decline | only modest declines
